From PubChem BioAssay AID1963834 (Molecular Pharmacology Branch, DTP, NCI, 2024)

Test system: 873145-292-R-J1-PDC complex spheroid viability
Assay: Anticancer human tumor 873145-292-R-J1-PDC patient-derived renal clear cell carcinoma cell line growth inhibition [POLQ]
Settings: for IC50: curve of first compound; for viability, T/C: stronger effect = lower value; active means viability on the fitted dose curve at most 10% of control; inactive means the rest
How it was run: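 Patient-derived tumour cells were co-cultured with HUVEC and mesenchymal stem cells as multicellular spheroids at 37 °C. They were treated with POLQ inhibitors (novobiocin, ART-558, RP6685) alone or combined with other agents. Top concentrations were at or near clinical Cmax (otherwise 10 microM; SN-38 at 1 microM), decreasing in half-log steps.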

[1] = second compound 0.0316 µM, first compound 0.0316 µM
[2] = second compound 0.0316 µM, first compound 0.1 µM
[3] = second compound 0.0316 µM, first compound 0.316 µM
[4] = second compound 0.0316 µM, first compound 1 µM
[5] = second compound 0.0316 µM, first compound 3.16 µM
[6] = second compound 0.0316 µM, first compound 10 µM
[7] = second compound 0.1 µM, first compound 0.0316 µM
[8] = second compound 0.1 µM, first compound 0.1 µM
[9] = second compound 0.1 µM, first compound 0.316 µM
[10] = second compound 0.1 µM, first compound 1 µM
[11] = second compound 0.1 µM, first compound 3.16 µM
[12] = second compound 0.1 µM, first compound 10 µM
[13] = second compound 0.316 µM, first compound 0.0316 µM
[14] = second compound 0.316 µM, first compound 0.1 µM
[15] = second compound 0.316 µM, first compound 0.316 µM
[16] = second compound 0.316 µM, first compound 1 µM
[17] = second compound 0.316 µM, first compound 3.16 µM
[18] = second compound 0.316 µM, first compound 10 µM
[19] = second compound 1 µM, first compound 0.0316 µM
[20] = second compound 1 µM, first compound 0.1 µM
[21] = second compound 1 µM, first compound 0.316 µM
[22] = second compound 1 µM, first compound 1 µM
[23] = second compound 1 µM, first compound 3.16 µM
[24] = second compound 1 µM, first compound 10 µM
[25] = second compound 3.16 µM, first compound 0.0316 µM
[26] = second compound 3.16 µM, first compound 0.1 µM
[27] = second compound 3.16 µM, first compound 0.316 µM
[28] = second compound 3.16 µM, first compound 1 µM
[29] = second compound 3.16 µM, first compound 3.16 µM
[30] = second compound 3.16 µM, first compound 10 µM
[31] = second compound 10 µM, first compound 0.0316 µM
[32] = second compound 10 µM, first compound 0.1 µM
[33] = second compound 10 µM, first compound 0.316 µM
[34] = second compound 10 µM, first compound 1 µM
[35] = second compound 10 µM, first compound 3.16 µM
[36] = second compound 10 µM, first compound 10 µM
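Further: spheroids exposed to compounds for 7 days before viability readout.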
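Wherever viability, T/C is given: luminescence signal used as surrogate for viable cell content; 100% = DMSO vehicle control viability.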

CCCS(=O)(=O)Nc1ccc(F)c(C(=O)c2c[nH]c3ncc(-c4ccc(Cl)cc4)cc23)c1F + Nc1ccc(C#CCN(C(=O)Cc2ncc(C(F)(F)F)cc2C(F)(F)F)c2ccc(F)cc2)nn1
inactive: viability, T/C [1] 106% | viability, T/C [2] 106% | viability, T/C [3] 115% | viability, T/C [4] 97% | viability, T/C [5] 103% | viability, T/C [6] 71.2% | viability, T/C [7] 103% | viability, T/C [8] 110% | viability, T/C [9] 91.9% | viability, T/C [10] 98% | viability, T/C [11] 105% | viability, T/C [12] 63.3% | viability, T/C [13] 109% | viability, T/C [14] 107% | viability, T/C [15] 93.3% | viability, T/C [16] 112% | viability, T/C [17] 99.2% | viability, T/C [18] 75.6% | viability, T/C [19] 98.7% | viability, T/C [20] 98.9% | viability, T/C [21] 102% | viability, T/C [22] 102% | viability, T/C [23] 91.1% | viability, T/C [24] 63% | viability, T/C [25] 106% | viability, T/C [26] 113% | viability, T/C [27] 108% | viability, T/C [28] 108% | viability, T/C [29] 101% | viability, T/C [30] 75.4% | viability, T/C [31] 121% | viability, T/C [32] 121% | viability, T/C [33] 111% | viability, T/C [34] 107% | viability, T/C [35] 110% | viability, T/C [36] 78.5%
> 10 µM: IC50 (second compound 0.0316 µM) | IC50 (second compound 0.1 µM) | IC50 (second compound 0.316 µM) | IC50 (second compound 1 µM) | IC50 (second compound 3.16 µM) | IC50 (second compound 10 µM)

CNCc1ccc(-c2[nH]c3cc(F)cc4c3c2CCNC4=O)cc1 + Nc1ccc(C#CCN(C(=O)Cc2ncc(C(F)(F)F)cc2C(F)(F)F)c2ccc(F)cc2)nn1
inactive: viability, T/C [1] 99% | viability, T/C [2] 92.8% | viability, T/C [3] 89.1% | viability, T/C [4] 87.7% | viability, T/C [5] 95.5% | viability, T/C [6] 103% | viability, T/C [7] 107% | viability, T/C [8] 105% | viability, T/C [9] 83.5% | viability, T/C [10] 88.9% | viability, T/C [11] 88.3% | viability, T/C [12] 92.8% | viability, T/C [13] 97.3% | viability, T/C [14] 95.8% | viability, T/C [15] 88.6% | viability, T/C [16] 92.4% | viability, T/C [17] 91.6% | viability, T/C [18] 89.2% | viability, T/C [19] 102% | viability, T/C [20] 92.9% | viability, T/C [21] 102% | viability, T/C [22] 94.7% | viability, T/C [23] 103% | viability, T/C [24] 90.4% | viability, T/C [25] 100% | viability, T/C [26] 104% | viability, T/C [27] 108% | viability, T/C [28] 95.4% | viability, T/C [29] 97.5% | viability, T/C [30] 100% | viability, T/C [31] 109% | viability, T/C [32] 104% | viability, T/C [33] 103% | viability, T/C [34] 100% | viability, T/C [35] 99.4% | viability, T/C [36] 105%
> 10 µM: IC50 (second compound 0.0316 µM) | IC50 (second compound 0.1 µM) | IC50 (second compound 0.316 µM) | IC50 (second compound 1 µM) | IC50 (second compound 3.16 µM) | IC50 (second compound 10 µM)
